# Columns and labels:
# [1] = target: T1, Protein deacetylase HDAC6 (Homo sapiens, UniProt Q9UBN7); test: Inhibition of human recombinant HDAC6 using Ac-Leu-Gly-(AMC)Lys-Ac as substrate
# T1 sequence (Q9UBN7 whole entry): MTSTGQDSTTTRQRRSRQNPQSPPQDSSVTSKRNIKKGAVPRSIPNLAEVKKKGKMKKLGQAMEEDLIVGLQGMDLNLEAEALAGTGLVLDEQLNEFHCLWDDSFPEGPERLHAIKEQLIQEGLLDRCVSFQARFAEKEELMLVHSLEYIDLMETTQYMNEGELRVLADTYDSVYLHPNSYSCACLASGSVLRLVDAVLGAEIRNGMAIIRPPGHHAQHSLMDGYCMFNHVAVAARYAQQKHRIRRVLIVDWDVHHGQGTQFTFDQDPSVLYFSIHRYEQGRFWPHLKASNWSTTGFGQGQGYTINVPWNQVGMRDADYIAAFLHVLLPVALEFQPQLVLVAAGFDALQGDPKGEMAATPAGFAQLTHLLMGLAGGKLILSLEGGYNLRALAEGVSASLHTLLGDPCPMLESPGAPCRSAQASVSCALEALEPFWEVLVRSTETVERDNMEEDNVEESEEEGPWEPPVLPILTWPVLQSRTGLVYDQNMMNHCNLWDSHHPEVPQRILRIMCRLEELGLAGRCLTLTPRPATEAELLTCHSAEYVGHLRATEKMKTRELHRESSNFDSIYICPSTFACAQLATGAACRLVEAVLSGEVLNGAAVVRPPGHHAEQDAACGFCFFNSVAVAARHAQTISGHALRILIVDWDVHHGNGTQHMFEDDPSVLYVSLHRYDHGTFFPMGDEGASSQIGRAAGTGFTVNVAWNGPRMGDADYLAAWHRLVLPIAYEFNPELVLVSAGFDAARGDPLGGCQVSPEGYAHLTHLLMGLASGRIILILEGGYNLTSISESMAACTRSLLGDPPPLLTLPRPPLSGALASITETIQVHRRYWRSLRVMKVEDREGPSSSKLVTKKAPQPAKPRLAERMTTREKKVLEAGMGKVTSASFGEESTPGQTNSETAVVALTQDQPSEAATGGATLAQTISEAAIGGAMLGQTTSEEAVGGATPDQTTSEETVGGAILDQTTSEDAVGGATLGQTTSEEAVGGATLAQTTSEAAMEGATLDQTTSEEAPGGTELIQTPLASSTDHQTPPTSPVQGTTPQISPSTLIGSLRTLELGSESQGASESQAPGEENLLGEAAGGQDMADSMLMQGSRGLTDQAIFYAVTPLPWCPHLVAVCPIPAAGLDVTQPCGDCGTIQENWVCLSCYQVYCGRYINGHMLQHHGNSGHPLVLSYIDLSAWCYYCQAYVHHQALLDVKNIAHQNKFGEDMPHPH
# Histone deacetylase 1 [2] = target: T2, Histone deacetylase 1 (Homo sapiens, UniProt Q13547); test: Inhibition of human recombinant HDAC1 using Ac-Leu-Gly-(AMC)Lys-Ac as substrate
# Histone deacetylase 11 = target: T3, Histone deacetylase 11 (Homo sapiens, UniProt Q96DB2); test: Inhibition of HDAC11 (unknown origin)
# T3 sequence (Q96DB2 whole entry): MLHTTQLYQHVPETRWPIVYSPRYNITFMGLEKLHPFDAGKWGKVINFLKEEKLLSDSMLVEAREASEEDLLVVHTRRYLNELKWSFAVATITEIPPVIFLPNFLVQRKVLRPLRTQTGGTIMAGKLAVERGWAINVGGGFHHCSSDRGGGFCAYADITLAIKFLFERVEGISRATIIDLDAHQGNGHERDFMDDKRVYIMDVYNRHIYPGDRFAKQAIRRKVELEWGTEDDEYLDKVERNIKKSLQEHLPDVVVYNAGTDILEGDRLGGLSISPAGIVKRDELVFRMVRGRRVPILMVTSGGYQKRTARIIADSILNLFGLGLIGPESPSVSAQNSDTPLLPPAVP
# Histone deacetylase 7 = target: T4, Histone deacetylase 7 (Homo sapiens, UniProt Q8WUI4); test: Inhibition of HDAC7 (unknown origin)
# T4 sequence (Q8WUI4 whole entry): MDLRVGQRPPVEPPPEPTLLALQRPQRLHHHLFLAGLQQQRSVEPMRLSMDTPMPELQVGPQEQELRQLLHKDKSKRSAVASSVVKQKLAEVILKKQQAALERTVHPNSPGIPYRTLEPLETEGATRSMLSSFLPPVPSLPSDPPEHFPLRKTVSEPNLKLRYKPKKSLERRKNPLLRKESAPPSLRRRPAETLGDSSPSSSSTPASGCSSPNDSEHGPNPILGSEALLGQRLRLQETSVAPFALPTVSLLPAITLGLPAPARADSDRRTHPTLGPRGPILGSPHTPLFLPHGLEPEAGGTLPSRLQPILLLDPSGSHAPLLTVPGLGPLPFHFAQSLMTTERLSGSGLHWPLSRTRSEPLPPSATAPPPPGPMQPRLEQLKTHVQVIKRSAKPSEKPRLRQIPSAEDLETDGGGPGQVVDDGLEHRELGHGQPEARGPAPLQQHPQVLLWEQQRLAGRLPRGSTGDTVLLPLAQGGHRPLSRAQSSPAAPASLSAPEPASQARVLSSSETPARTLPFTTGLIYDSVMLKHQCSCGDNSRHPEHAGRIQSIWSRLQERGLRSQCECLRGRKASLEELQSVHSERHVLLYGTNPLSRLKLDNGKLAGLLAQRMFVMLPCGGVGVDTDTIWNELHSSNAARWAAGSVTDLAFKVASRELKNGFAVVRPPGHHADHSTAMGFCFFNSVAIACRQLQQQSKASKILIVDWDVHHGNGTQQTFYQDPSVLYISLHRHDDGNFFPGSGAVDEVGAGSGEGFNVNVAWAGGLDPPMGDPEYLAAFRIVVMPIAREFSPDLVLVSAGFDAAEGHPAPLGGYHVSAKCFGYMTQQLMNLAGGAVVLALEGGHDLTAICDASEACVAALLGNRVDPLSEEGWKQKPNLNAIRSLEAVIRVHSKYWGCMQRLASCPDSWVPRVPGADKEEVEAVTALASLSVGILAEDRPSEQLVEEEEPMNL
# Histone deacetylase 5 = Histone deacetylase 5 (Homo sapiens, UniProt Q9UQL6); test: Inhibition of HDAC5 (unknown origin)
# [3] = target: T1, Protein deacetylase HDAC6; test: Inhibition of HDAC6 (unknown origin)
# Histone deacetylase 3 [4] = target: T5, Histone deacetylase 3 (Homo sapiens, UniProt O15379); test: Inhibition of HDAC3 (unknown origin)
# Histone deacetylase 2 [5] = target: T6, Histone deacetylase 2 (Homo sapiens, UniProt Q92769); test: Inhibition of HDAC2 (unknown origin)
# Histone deacetylase 8 [6] = target: T7, Histone deacetylase 8 (Homo sapiens, UniProt Q9BY41); test: Inhibition of HDAC8 (unknown origin)
# T7 sequence (Q9BY41 whole entry): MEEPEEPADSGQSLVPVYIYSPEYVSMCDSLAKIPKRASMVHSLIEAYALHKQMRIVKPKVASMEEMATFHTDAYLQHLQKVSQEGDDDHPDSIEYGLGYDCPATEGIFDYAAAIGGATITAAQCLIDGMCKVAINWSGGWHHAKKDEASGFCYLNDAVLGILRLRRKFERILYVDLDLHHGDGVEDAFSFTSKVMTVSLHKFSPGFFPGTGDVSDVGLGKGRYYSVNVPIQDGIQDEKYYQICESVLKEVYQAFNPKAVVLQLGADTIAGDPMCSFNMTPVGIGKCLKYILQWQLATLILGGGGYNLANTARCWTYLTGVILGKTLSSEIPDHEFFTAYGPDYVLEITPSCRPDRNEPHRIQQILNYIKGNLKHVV
# Histone deacetylase 1 [7] = target: T2, Histone deacetylase 1; test: Inhibition of HDAC1 (unknown origin)
# [8] = target: T8, Polyamine deacetylase HDAC10 (Homo sapiens, UniProt Q969S8); test: Inhibition of HDAC10 (unknown origin)
# T8 sequence (Q969S8 whole entry): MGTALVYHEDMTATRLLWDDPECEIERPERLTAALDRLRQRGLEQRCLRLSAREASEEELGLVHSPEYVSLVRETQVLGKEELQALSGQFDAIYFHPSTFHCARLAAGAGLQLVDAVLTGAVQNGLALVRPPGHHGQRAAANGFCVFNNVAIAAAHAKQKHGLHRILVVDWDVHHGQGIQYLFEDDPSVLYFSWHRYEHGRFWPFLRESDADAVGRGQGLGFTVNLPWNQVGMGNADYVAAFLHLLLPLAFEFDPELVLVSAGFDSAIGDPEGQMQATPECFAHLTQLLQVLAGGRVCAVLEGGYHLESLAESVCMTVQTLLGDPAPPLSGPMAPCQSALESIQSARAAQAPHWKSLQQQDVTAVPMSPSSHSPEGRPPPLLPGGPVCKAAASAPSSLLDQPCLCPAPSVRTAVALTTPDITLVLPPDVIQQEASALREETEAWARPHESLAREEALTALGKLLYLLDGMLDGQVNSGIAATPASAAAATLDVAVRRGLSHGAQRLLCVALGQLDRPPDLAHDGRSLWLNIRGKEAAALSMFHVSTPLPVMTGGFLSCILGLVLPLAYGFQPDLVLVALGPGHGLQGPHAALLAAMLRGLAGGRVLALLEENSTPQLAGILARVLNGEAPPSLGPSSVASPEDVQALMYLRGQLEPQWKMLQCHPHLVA
# [9] = target: T8, Polyamine deacetylase HDAC10; test: Inhibition of C-terminal deleted 38 amino acids (632 to 669) HDAC10 (unknown origin) expressed in sf9 cells using carboxyfluorescein (FAM)-labeled acetylated peptide as substrate after 17 hrs by fluorescence-based electrophoretic assay
# Histone deacetylase 8 [10] = target: T7, Histone deacetylase 8; test: Inhibition of His-6-tagged full length HDAC8 (unknown origin) expressed in sf9 cells using carboxyfluorescein (FAM)-labeled acetylated peptide as substrate after 17 hrs by fluorescence-based electrophoretic assay
# [11] = target: T1, Protein deacetylase HDAC6; test: Inhibition of His-6-tagged full length HDAC6 (unknown origin) expressed in sf9 cells using carboxyfluorescein (FAM)-labeled acetylated peptide as substrate after 17 hrs by fluorescence-based electrophoretic assay
# Histone deacetylase 2 [12] = target: T6, Histone deacetylase 2; test: Inhibition of His-6-tagged full length HDAC2 (unknown origin) expressed in sf9 cells using carboxyfluorescein (FAM)-labeled acetylated peptide as substrate after 17 hrs by fluorescence-based electrophoretic assay
# Histone deacetylase 1 [13] = target: T2, Histone deacetylase 1; test: Inhibition of His-6-tagged full length HDAC1 (unknown origin) expressed in sf9 cells using carboxyfluorescein (FAM)-labeled acetylated peptide as substrate after 17 hrs by fluorescence-based electrophoretic assay
# Histone deacetylase 3 [14] = target: T5, Histone deacetylase 3; test: Inhibition of His-6-tagged full length HDAC3 (unknown origin) expressed in sf9 cells and co-expressed in SMRT gene (395 to 489) using carboxyfluorescein (FAM)-labeled acetylated peptide as substrate after 17 hrs by fluorescence-based electrophoretic assay
# Histone deacetylase 4 = Histone deacetylase 4 (Homo sapiens, UniProt P56524); test: Inhibition of HDAC4 (unknown origin)
# Histone deacetylase 3 [15] = target: T5, Histone deacetylase 3; test: Inhibition of HDAC3 (unknown origin) using carboxyfluorescein (FAM)-labeled acetylated peptide as substrate after 17 hrs by fluorescence-based electrophoretic assay
# Histone deacetylase 2 [16] = target: T6, Histone deacetylase 2; test: Inhibition of HDAC2 (unknown origin) using carboxyfluorescein (FAM)-labeled acetylated peptide as substrate after 17 hrs by fluorescence-based electrophoretic assay
# Histone deacetylase 1 [17] = target: T2, Histone deacetylase 1; test: Inhibition of HDAC1 (unknown origin) using carboxyfluorescein (FAM)-labeled acetylated peptide as substrate after 17 hrs by fluorescence-based electrophoretic assay
# T6 sequence (Q92769 whole entry): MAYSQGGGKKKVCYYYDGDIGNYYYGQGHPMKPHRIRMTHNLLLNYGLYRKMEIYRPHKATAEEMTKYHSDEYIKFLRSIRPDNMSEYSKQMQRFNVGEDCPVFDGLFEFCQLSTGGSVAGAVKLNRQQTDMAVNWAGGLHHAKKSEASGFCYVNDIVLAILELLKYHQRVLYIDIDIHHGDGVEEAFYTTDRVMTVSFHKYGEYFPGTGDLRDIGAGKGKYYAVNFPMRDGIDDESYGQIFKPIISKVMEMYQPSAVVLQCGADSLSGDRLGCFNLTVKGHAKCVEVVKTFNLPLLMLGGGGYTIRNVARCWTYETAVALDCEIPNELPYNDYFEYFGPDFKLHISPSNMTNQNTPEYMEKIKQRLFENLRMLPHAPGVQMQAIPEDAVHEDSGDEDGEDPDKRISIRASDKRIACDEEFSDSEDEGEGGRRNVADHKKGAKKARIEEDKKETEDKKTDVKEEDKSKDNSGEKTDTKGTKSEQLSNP
# T2 sequence (Q13547 whole entry): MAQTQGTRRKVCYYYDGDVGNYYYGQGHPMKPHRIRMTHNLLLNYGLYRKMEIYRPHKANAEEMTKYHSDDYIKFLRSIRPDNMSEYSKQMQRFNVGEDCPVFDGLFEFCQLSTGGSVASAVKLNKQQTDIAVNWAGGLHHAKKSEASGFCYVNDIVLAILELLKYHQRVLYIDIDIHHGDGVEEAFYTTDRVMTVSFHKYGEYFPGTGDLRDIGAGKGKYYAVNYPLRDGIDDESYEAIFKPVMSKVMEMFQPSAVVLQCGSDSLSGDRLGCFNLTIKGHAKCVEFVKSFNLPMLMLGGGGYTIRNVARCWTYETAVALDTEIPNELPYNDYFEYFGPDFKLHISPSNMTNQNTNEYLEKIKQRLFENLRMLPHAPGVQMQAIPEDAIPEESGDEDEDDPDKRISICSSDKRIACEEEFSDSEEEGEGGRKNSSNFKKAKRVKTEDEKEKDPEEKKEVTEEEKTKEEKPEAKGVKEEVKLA
# Histone deacetylase 5, sequence (Q9UQL6 whole entry): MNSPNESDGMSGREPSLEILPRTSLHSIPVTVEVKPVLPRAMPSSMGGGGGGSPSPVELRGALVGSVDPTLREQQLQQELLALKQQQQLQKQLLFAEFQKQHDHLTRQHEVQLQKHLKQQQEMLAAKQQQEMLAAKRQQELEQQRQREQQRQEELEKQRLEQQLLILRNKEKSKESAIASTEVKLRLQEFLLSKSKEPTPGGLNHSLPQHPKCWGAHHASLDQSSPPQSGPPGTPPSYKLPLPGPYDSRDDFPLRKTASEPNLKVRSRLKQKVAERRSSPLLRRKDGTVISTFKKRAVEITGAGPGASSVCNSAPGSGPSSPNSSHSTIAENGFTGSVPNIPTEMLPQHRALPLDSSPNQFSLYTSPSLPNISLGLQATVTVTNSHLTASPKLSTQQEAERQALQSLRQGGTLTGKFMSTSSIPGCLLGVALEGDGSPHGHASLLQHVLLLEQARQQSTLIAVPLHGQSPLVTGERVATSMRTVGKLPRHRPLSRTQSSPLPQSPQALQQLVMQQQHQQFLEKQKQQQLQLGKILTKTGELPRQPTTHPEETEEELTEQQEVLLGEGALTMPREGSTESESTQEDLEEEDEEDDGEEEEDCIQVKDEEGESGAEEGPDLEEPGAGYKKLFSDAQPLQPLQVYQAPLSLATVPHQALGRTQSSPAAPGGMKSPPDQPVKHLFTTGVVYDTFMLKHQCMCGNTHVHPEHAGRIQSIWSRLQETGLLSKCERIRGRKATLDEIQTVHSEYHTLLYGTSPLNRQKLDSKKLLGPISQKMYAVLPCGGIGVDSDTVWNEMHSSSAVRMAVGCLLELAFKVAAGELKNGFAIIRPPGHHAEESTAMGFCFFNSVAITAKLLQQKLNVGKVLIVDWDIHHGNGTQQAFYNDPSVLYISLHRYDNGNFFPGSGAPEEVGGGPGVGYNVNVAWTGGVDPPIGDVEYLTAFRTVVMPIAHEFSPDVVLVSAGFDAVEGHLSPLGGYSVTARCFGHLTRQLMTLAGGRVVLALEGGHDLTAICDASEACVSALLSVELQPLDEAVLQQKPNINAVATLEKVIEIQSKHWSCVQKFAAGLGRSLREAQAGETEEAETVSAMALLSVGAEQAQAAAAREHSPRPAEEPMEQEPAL
# T5 sequence (O15379 whole entry): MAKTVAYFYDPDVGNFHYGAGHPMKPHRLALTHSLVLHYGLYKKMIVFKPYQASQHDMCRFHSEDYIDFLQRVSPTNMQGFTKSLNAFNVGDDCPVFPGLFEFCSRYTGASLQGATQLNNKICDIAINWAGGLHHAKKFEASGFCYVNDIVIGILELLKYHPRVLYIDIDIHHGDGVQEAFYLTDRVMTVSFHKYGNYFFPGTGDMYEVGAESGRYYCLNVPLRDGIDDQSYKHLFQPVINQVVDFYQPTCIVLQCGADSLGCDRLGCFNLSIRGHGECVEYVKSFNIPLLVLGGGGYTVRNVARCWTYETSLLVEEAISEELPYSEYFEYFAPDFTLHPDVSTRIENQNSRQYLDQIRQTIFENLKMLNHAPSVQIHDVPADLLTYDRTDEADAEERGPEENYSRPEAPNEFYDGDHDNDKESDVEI
# Histone deacetylase 4, sequence (P56524 whole entry): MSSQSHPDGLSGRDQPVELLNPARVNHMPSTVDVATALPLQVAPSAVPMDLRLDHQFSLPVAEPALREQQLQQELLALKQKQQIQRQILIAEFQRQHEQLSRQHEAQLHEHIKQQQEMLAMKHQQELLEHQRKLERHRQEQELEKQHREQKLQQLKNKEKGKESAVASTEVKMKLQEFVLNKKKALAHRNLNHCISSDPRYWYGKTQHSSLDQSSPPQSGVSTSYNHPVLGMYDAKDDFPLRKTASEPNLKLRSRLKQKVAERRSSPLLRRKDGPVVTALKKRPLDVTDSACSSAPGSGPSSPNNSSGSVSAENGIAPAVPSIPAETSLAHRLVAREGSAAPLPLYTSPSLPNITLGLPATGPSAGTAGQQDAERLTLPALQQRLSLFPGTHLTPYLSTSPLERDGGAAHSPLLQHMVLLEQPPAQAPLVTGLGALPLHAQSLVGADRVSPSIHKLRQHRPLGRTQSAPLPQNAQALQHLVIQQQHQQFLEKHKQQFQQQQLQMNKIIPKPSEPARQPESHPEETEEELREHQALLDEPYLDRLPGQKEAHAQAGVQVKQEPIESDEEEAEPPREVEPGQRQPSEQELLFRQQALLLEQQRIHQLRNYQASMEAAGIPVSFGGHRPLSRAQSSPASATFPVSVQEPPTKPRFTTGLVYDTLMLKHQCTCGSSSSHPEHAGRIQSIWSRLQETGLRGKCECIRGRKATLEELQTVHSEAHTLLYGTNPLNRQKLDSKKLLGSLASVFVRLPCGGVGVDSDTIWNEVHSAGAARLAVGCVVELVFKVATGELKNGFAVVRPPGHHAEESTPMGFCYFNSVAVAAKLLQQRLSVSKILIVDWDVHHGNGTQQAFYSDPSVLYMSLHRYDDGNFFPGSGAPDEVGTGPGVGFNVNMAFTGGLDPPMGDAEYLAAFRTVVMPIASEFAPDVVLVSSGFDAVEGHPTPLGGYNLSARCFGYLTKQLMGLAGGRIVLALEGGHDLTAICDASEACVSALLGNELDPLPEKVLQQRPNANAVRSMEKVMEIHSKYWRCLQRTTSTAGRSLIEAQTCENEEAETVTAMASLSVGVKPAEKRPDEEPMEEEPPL
structure (smiles),measurement,setting,value
O=C(NC1=CC(=O)c2ccccc2C1=O)c1ccccc1,IC50,[1],5.54 µM
same,IC50,Histone deacetylase 1 [2],> 180 µM
O=C(CS)NCCCCCC(=O)Nc1cccc2cccnc12,IC50,Histone deacetylase 11,0.61 µM
same,IC50,Histone deacetylase 7,2.78 µM
same,IC50,Histone deacetylase 5,0.89 µM
same,IC50,[3],0.021 µM
same,IC50,Histone deacetylase 3 [4],1.32 µM
same,IC50,Histone deacetylase 2 [5],1.25 µM
O=C(CCCCCNC(=O)NC12CC3CC(CC(C3)C1)C2)NO,IC50,Histone deacetylase 11,0.19 µM
same,IC50,Histone deacetylase 7,1.29 µM
same,IC50,Histone deacetylase 8 [6],6.8 µM
same,IC50,Histone deacetylase 5,0.31 µM
same,IC50,[3],0.073 µM
same,IC50,Histone deacetylase 3 [4],1.56 µM
same,IC50,Histone deacetylase 1 [7],0.58 µM
same,IC50,Histone deacetylase 2 [5],2.58 µM
same,IC50,[8],0.27 µM
O=C(CCCCCCC(=O)Nc1ccc(-c2ccccc2NC(=O)[C@@H]2CCCN2)cc1)NO,IC50,[9],0.07 µM
same,IC50,Histone deacetylase 8 [10],2.66 µM
same,IC50,[11],0.016 µM
same,IC50,Histone deacetylase 2 [12],0.193 µM
same,IC50,Histone deacetylase 1 [13],0.052 µM
CC(C)(C)OC(=O)Nc1cccc(-c2csc(NC(=O)CCCCCCC(=O)NO)n2)c1,IC50,[9],0.006 µM
same,IC50,Histone deacetylase 8 [10],2.58 µM
same,IC50,[11],< 0.0002 µM
same,IC50,Histone deacetylase 3 [14],0.002 µM
same,IC50,Histone deacetylase 2 [12],0.021 µM
same,IC50,Histone deacetylase 1 [13],0.004 µM
Cc1onc(-c2ccccc2)c1C(=O)NCCCCCNC(=O)CS,IC50,Histone deacetylase 4,10 µM
same,IC50,Histone deacetylase 5,15 µM
same,IC50,[3],0.26 µM
same,IC50,Histone deacetylase 1 [7],5.7 µM
same,IC50,Histone deacetylase 2 [5],28 µM
Cc1onc(-c2ccccc2)c1C(=O)NCCCCCNC(=O)[C@@H](C)S,IC50,Histone deacetylase 4,> 30 µM
same,IC50,Histone deacetylase 5,> 30 µM
same,IC50,[3],0.28 µM
same,IC50,Histone deacetylase 1 [7],> 30 µM
same,IC50,Histone deacetylase 2 [5],> 30 µM
COC(=O)[C@@H](Cc1ccccn1)NC(=O)CCCCCCCC(=O)NO,IC50,[3],4.01 µM
same,IC50,Histone deacetylase 1 [7],82.6 µM
COC(=O)[C@H](Cc1ccccn1)NC(=O)CCCCCCCC(=O)NO,IC50,[3],4.06 µM
same,IC50,Histone deacetylase 1 [7],67.3 µM
CC(C)(C)OC(=O)Nc1ccc(-c2cc(C(=O)NCCCCCCC(=O)NO)no2)cc1,IC50,Histone deacetylase 3 [15],0.19 µM
same,IC50,Histone deacetylase 2 [16],0.093 µM
same,IC50,Histone deacetylase 1 [17],0.0127 µM
CCCCOc1ccc(CC(=O)NO)cc1 [BUFEXAMAC],Kd,Histone deacetylase 8 [6]; read-out: Kd(app),235 µM
same,Kd,[3]; read-out: Kd(app),10.7 µM
same,Kd,Histone deacetylase 3 [4]; read-out: Kd(app),341 µM
same,Kd,Histone deacetylase 1 [7]; read-out: Kd(app),> 1000 µM
same,Kd,Histone deacetylase 2 [5]; read-out: Kd(app),> 1000 µM
same,Kd,[8]; read-out: Kd(app),12.3 µM
O=C(CCCCCCNC(=O)c1cnc(N(c2ccccc2)c2ccccc2)nc1)NO [RICOLINOSTAT],IC50,[8],> 10 µM

# — ChEMBL document CHEMBL2417402, “Development and therapeutic implications of selective histone deacetylase 6 inhibitors” (J Med Chem, 2013)
